Legend:
human LTA4 hydrolase = human LTA4 hydrolase (Homo sapiens (Human), UniProt P09960); test: LTA4H Enzyme assay (peptidase, Arg-AMC cleavage); assay type: biochemical; details: LTA4H Enzyme 1 nM, Arg-AMC substrate 50 μM, room temperature 1 h, fluorescence
Procedure, shortened: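 Aminomethylcoumarin release measured fluorimetrically (380/460 nm) after 1 h at room temperature. Reaction: 1 nM final enzyme, 50 μM final Arg-AMC and compound in Tris-HCl pH 7.5 with 100 mM KCl and 0.5% BSA.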

[1] = tested on: synthesis of LTB4 in human whole blood; test: LTB4 production inhibition assay in human whole blood (HWB); assay type: cell-based; details: heparinized human whole blood, 15 min at 37° C., Calcimycin 20 μM 30 min, plasma LTB4 by HTRF
Procedure, shortened: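 LTB4 in plasma read by HTRF immunoassay after centrifugation. Before that, compound sat with heparinized human whole blood 15 min at 37° C, followed by 30 min at 37° C with 20 μM (final) calcimycin.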

human LTA4 hydrolase, sequence (P09960 whole entry): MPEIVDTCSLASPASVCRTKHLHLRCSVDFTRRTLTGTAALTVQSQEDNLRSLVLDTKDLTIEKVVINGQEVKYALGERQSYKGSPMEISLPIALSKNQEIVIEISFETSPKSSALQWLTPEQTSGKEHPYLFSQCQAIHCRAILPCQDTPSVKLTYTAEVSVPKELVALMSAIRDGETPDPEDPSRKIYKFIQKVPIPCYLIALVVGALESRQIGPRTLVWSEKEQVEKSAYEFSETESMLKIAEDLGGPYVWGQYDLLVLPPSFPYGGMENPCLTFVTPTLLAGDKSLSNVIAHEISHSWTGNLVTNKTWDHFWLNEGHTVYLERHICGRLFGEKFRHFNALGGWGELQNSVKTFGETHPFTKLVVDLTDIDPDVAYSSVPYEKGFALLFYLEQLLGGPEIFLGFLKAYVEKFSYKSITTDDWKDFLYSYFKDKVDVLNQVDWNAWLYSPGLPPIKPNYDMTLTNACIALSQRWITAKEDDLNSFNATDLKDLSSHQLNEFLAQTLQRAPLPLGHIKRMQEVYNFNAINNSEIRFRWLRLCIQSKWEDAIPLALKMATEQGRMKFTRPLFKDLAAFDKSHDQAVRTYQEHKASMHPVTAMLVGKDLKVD

O=C(CO)N1CCN(CC2Cc3ccc(Oc4ccc(-c5ccn[nH]5)cn4)cc3O2)CC1 (stereo not drawn) [Example 65, 2-Hydroxy-1-(4-{6-[5-(2H-pyrazol-3-yl)-pyridin-2-yloxy]-2,3-dihydro-benzofuran-2-ylmethyl}-piperazin-1-yl)-ethanone]
IC50 (human LTA4 hydrolase): 4.6 nM | IC50 [1]: 560 nM

CO[C@H](C)C(=O)N1CC2CCC(C1)N2Cc1ccc2cc(Oc3ccc(-c4ccn[nH]4)cn3)ccc2n1 [Example 52, (R)-2-Methoxy-1-(8-{6-[5-(2H-pyrazol-3-yl)-pyridin-2-yloxy]-quinolin-2-ylmethyl}-3,8-diaza-bicyclo[3.2.1]oct-3-yl)-propan-1-one]
IC50 (human LTA4 hydrolase): 0.77 nM | IC50 [1]: 150 nM

CN(Cc1ccc2cc(Oc3ccc(-c4ccn[nH]4)cn3)ccc2c1)[C@H]1CCN(C(=O)CO)C1 [Example 23, 2-Hydroxy-1-[(S)-3-(methyl-{6-[5-(2H-pyrazol-3-yl)-pyridin-2-yloxy]-naphthalen-2-ylmethyl}-amino)-pyrrolidin-1-yl]-ethanone]
IC50 (human LTA4 hydrolase): 0.9 nM | IC50 [1]: 170 nM

O=C(CO)N1CCC2(CCN(Cc3ccc4cc(Oc5ccc(-c6ccn[nH]6)cn5)ccc4n3)C2)C1 (stereo not drawn) [Example 102, 2-Hydroxy-1-(7-{6-[5-(2H-pyrazol-3-yl)-pyridin-2-yloxy]-quinolin-2-ylmethyl}-2,7-diaza-spiro[4.4]non-2-yl)-ethanone]
IC50 (human LTA4 hydrolase): 0.66 nM | IC50 [1]: 150 nM

CCCOCC(=O)N1CCN(Cc2ccc3cc(Oc4ccc(-c5ccn[nH]5)cn4)ccc3n2)CC1 [Example 144, 2-Propoxy-1-(4-{6-[5-(2H-pyrazol-3-yl)-pyridin-2-yloxy]-quinolin-2-ylmethyl}-piperazin-1-yl)-ethanone]
IC50 (human LTA4 hydrolase): 2.3 nM | IC50 [1]: 660 nM

CC(=O)N1CCC(CNCc2coc3cc(Oc4ccc(-c5ccn[nH]5)cn4)ccc23)CC1 [Example 107, 1-{4-[({6-[5-(2H-Pyrazol-3-yl)-pyridin-2-yloxy]-benzofuran-3-ylmethyl}-amino)-methyl]-piperidin-1-yl}-ethanone]
IC50 (human LTA4 hydrolase): 0.7 nM | IC50 [1]: 210 nM

CCC(=O)N1CCN(Cc2ccc3cc(Oc4ncc(-c5ccn[nH]5)cn4)ccc3c2)CC1 [Example 37, 1-(4-{6-[5-(2H-Pyrazol-3-yl)-pyrimidin-2-yloxy]-naphthalen-2-ylmethyl}-piperazin-1-yl)-propan-1-one]
IC50 (human LTA4 hydrolase): 0.43 nM | IC50 [1]: 120 nM

N#CC1(C(=O)N2CCN(Cc3ccc4cc(Oc5ccc(-c6ccn[nH]6)cn5)ccc4n3)CC2)CC1 [Example 116, 1-(4-{6-[5-(2H-Pyrazol-3-yl)-pyridin-2-yloxy]-quinolin-2-ylmethyl}-piperazine-1-carbonyl)-cyclopropanecarbonitrile]
IC50 (human LTA4 hydrolase): 0.87 nM | IC50 [1]: 240 nM

O=C([C@H]1CCCO1)N1CCN(Cc2ccc3cc(Oc4ccc(-c5ccn[nH]5)cn4)ccc3n2)CC1 [Example 133, (4-{6-[5-(2H-Pyrazol-3-yl)-pyridin-2-yloxy]-quinolin-2-ylmethyl}-piperazin-1-yl)-(R)-tetrahydro-furan-2-yl-methanone]
IC50 (human LTA4 hydrolase): 2.9 nM | IC50 [1]: 320 nM

CN(Cc1ccc2cc(Oc3ccc(-c4ccn[nH]4)cn3)ccc2c1)[C@@H]1CCN(C(=O)CO)C1 [Example 19, 2-Hydroxy-1-[(R)-3-(methyl-{6-[5-(2H-pyrazol-3-yl)-pyridin-2-yloxy]-naphthalen-2-ylmethyl}-amino)-pyrrolidin-1-yl]-ethanone]
IC50 (human LTA4 hydrolase): 0.63 nM | IC50 [1]: 140 nM

OC1CN(Cc2ccc3cc(Oc4ccc(-c5ccn[nH]5)cn4)ccc3n2)C1 [Example 42, 1-{6-[5-(2H-Pyrazol-3-yl)-pyridin-2-yloxy]-quinolin-2-ylmethyl}-azetidin-3-ol]
IC50 (human LTA4 hydrolase): 0.92 nM | IC50 [1]: 190 nM

O=C1CCCN1C1CCN(CCc2coc3cc(Oc4ccc(-c5ccn[nH]5)cn4)ccc23)CC1 [Example 72, 1-[1-(2-{6-[5-(2H-Pyrazol-3-yl)-pyridin-2-yloxy]-benzofuran-3-yl}-ethyl)-piperidin-4-yl]-pyrrolidin-2-one]
IC50 (human LTA4 hydrolase): 0.47 nM | IC50 [1]: 160 nM

From patent US9573957B2 (Boehringer Ingelheim International GmbH, priority 2013, dated 2017)
